Test results reported in patent US20250368683A1, “METHOD FOR TREATING OR PREVENTING BRONCHIAL ALLERGIC DISEASES WITH PEPTIDE COMPOSITION” (Greenyn Biotechnology Co., Ltd, priority 2024, published 2025).

What was measured:
Assay type in all cases: cell-based, mouse
IL-4 = test: Cell test: IL-4 secretion by P815 cells stimulated with compound 48/80 (ELISA); set-up: unit not given here; settings: 20 minutes pre-incubation with polypeptide, then compound 48/80, total 6 hours, supernatant ELISA
Description: (§1) In this example, the cell line used was the P815 mouse mastocytoma cell line, and the allergen was compound 48/80. To start with, each of the polypeptides represented by SEQ ID No. 1-10 was co-cultured with the P815 cells for 20 minutes, was then added with compound 48/80, and then continued co-culturing for a total of 6 hours. When the culturing process was completed, the supernatants were collected, and the amounts of IL-4 and IL-13 secretions were analyzed by enzyme-linked immunosorbent assay (ELISA), with the results shown in FIG. 1 and Table 2.

IL-13 = test: Cell test: IL-13 secretion by P815 cells stimulated with compound 48/80 (ELISA); set-up: IL-13 inhibitory activity: unit not given here; settings: for IL-13 inhibitory activity: 20 minutes pre-incubation with polypeptide, then compound 48/80, total 6 hours, supernatant ELISA; for IL-13 inhibitory activity (in words): compound 48/80
Description: as §1

Th2 pathway = test: Cell test: overall inhibitory activity on the Th2 pathway (IL-4 and IL-13, P815 cells); settings: all in all, from IL-4 and IL-13 results in P815 cells
Description: as §1
It can be known from the results in FIG. 1 and Table 2 that the polypeptides represented by SEQ ID No. 1-10 had IL-4 inhibitory activity; that the polypeptides represented by SEQ ID NO.

Row | Sequence | IL-4 inhibitory activity (IL-4) | IL-13 inhibitory activity (IL-13) | IL-13 inhibitory activity (in words) (IL-13) | inhibitory activity on the Th2 pathway (in words) (Th2 pathway)
1 | ALYPLLTTLTD [SEQ ID No. 5] | −13.1 | −71.4 | had IL-13 inhibitory activity | 
2 | GHCGCSSG [SEQ ID No. 8] | −38.5 | 0.0 |  | relatively good inhibitory activity
3 | IGVDEHYTPI [SEQ ID No. 10] | −7.2 | 0.0 |  | 
4 | INFVTEEDKR [SEQ ID No. 1] | −25.2 | 0.0 |  | 
5 | LGVTNINISDP [SEQ ID No. 2] | −16.0 | 0.0 |  | 
6 | LVGTDVATAQAP [SEQ ID No. 7] | −23.9 | 0.0 |  | 
7 | NFIVTGLQDIM [SEQ ID No. 9] | −11.5 | −57.1 | had IL-13 inhibitory activity | relatively good inhibitory activity
8 | RLTDYFTID [SEQ ID No. 3] | −8.9 | 0.0 |  | 
9 | SMNLSLVLQVV [SEQ ID No. 4] | −32.9 | −21.4 | had IL-13 inhibitory activity | relatively good inhibitory activity
10 | VRYLEWSNIESIIA [SEQ ID No. 6] | −22.2 | −60.7 |  | relatively good inhibitory activity
